Target: T1, Recombinant human KIF18A (1-467 His-tagged) protein (Homo sapiens, UniProt Q8NI77)
T1 construct: Recombinant human KIF18A (1-467 His-tagged) protein; His; made in house
Assay: KIF18A Enzyme Assay: microtubule-stimulated ATPase activity (ADP-Glo)
Format: biochemical
Conditions: 30 nM KIF18A, 30 μg/mL pig microtubules, 75 μM ATP, ADP-Glo luminescence
From the text: KIF18A Enzyme Assay: Microtubule-stimulated ATPase activity assay is used to measure KIF18A enzyme activity after treatment with compound. Compounds were 2-fold serially diluted in DMSO (Sigma Inc) over 22-point concentration range. Recombinant human KIF18A (1-467 His-tagged) protein was expressed using a baculovirus system and purified by affinity chromatography by Amgen Inc. Concentrations of KIF18A protein, microtubules (MT), and ATP in the reaction were optimized for standardized homogenous enzyme assay using ADP-Glo™ Kinase/ATPase Assay Kit (Promega Inc). The assay measures ADP formed from the ATPase reaction. Prepare reaction buffer [(15 mM Tris, pH 7.5 (Teknova Inc), 10 mM MgCl2 (IT Baker Inc), 0.01% Pluronic F-68 (Life Technologies Inc), 1 μM Taxol (Cytoskeleton Inc), and 30 μg/mL pig microtubules (Cytoskeleton Inc)]. Add compound and KIF18A protein (30 nM) to prepared reaction buffer and incubated for 15 minutes at room temperature, next add ATP (at Kin, 75 μM) to the reaction mixture and incubated for an additional 15 minutes at room temperature. Mix 5 μl of ADP-Glo™ Reagent and 2.5 μl of the reaction mixture and incubate for 40 minutes at room temperature. Add 10 μl ADP-Glo™ Detection Reagent and incubate for 40 minutes at room temperature. Read luminescence using EnVision microplate reader with ultra-luminescence module (Perkin Elmer Inc). Concentration-response curve-fitting and IC50 determination was performed using Genedata Screener Software (Standard 15.0.1, Genedata Inc) with a four-parameter logistic regression fit model.
Table A provides data for compounds exemplified in the present application and priority document thereof, as representative compounds of the present invention, as follows: chemical name (as named by either ACD software or ChemDraw (Professional 15.0)) and biological data (IC50 in μM). Ex. # refers to Example No.

T1 sequence (Q8NI77 1-467): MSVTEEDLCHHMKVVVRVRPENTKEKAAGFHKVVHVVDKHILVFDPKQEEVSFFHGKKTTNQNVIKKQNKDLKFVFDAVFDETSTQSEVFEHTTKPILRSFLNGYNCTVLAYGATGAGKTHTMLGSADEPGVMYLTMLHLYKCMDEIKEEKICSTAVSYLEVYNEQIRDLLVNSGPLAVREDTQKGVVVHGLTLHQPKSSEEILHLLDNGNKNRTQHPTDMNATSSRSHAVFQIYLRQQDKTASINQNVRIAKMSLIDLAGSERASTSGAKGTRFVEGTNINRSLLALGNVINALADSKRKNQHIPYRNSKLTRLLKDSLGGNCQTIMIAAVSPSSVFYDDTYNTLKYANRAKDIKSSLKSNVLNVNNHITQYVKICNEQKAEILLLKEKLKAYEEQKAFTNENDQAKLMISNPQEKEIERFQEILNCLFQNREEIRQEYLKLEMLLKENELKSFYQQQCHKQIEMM
T1 sequence (P02550 whole entry partner): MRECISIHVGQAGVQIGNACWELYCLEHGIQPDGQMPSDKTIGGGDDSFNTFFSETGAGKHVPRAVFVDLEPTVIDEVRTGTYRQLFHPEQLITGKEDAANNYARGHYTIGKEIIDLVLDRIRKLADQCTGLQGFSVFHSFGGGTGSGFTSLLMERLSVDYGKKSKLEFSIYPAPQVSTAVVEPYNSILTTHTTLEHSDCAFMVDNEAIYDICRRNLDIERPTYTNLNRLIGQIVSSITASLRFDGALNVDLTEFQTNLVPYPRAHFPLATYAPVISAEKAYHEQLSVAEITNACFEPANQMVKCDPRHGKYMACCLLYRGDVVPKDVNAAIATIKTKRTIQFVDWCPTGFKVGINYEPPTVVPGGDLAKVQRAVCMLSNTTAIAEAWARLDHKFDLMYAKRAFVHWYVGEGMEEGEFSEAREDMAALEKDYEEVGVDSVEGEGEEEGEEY
T1 sequence (P02554 whole entry partner): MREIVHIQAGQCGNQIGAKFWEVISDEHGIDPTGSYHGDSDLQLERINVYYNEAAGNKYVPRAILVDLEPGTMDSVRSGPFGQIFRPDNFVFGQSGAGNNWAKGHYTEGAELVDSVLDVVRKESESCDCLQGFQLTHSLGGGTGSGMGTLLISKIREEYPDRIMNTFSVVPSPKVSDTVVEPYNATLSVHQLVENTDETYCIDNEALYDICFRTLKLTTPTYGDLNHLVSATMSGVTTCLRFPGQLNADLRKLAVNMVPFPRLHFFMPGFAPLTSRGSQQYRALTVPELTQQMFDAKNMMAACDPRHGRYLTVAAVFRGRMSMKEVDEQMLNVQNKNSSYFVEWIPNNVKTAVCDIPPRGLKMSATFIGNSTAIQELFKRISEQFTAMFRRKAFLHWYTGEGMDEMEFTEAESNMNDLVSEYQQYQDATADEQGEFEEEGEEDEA

| IC50 | Compound |
| --- | --- |
| 57.5 nM | C[C@](O)(c1ccc(C(=O)Nc2cccc(N3CCOCC3)n2)c(N2CCC3(CC2)CC3)n1)C(F)(F)F [Example 142, 2-(6-azaspiro[2.5]oct-6-yl)-N-(6-(4-morpholinyl)-2-pyridinyl)-6-((2S)-1,1,1-trifluoro-2-hydroxy-2-propanyl)-3-pyridinecarboxamide] |
| 76.5 nM | CC(C)(CO)Nc1ccc(C(=O)Nc2cccc(N3CC(F)C3)n2)c(N2CCC3(CC2)CC3)n1 [Example 144, 2-(6-azaspiro[2.5]oct-6-yl)-N-(6-(3-fluoro-1-azetidinyl)-2-pyridinyl)-6-((1-hydroxy-2-methyl-2-propanyl)amino)-3-pyridinecarboxamide] |
| 168 nM | COC1CN(c2cccc(NC(=O)c3ccc(NC(C)(C)CO)nc3N3CCC4(CC3)CC4)n2)C1 [Example 145, 2-(6-azaspiro[2.5]oct-6-yl)-6-((1-hydroxy-2-methyl-2-propanyl)amino)-N-(6-(3-methoxy-1-azetidinyl)-2-pyridinyl)-3-pyridinecarboxamide] |
| 247 nM | CC(C)(CO)Nc1ccc(C(=O)Nc2cccc(C3CCOCC3)n2)c(N2CCC3(CC2)CC3)n1 [Example 146, 2-(6-azaspiro[2.5]oct-6-yl)-6-((1-hydroxy-2-methyl-2-propanyl)amino)-N-(6-(tetrahydro-2H-pyran-4-yl)-2-pyridinyl)-3-pyridinecarboxamide] |
| 53.4 nM | C[C@@H]1CN(c2cccc(NC(=O)c3ccc(NC(C)(CO)CO)nc3N3CCC4(CC3)CC4)n2)CCO1 [Example 147, (R)-6-((1,3-dihydroxy-2-methylpropan-2-yl)amino)-N-(6-(2-methylmorpholino)pyridin-2-yl)-2-(6-azaspiro[2.5]octan-6-yl)nicotinamide] |

The next lines start with the compound.

| Compound | IC50 |
| --- | --- |
| CC1(C)CC(=O)N(c2cccc(NC(=O)c3ccc(NC(C)(C)CO)nc3N3CCC4(CC3)CC4)n2)C1 [Example 135, 2-(6-azaspiro[2.5]oct-6-yl)-N-(6-(4,4-dimethyl-2-oxo-1-pyrrolidinyl)-2-pyridinyl)-6-((2-hydroxy-1,1-dimethylethyl)amino)-3-pyridinecarboxamide] | 110 nM |
| CC(C)(CO)Nc1ccc(C(=O)Nc2cccc(N3C[C@H]4C[C@H]4C3)n2)c(N2CCC3(CC2)CC3)n1 [Example 136, N-(6-((1R,5S)-3-azabicyclo[3.1.0]hex-3-yl)-2-pyridinyl)-2-(6-azaspiro[2.5]oct-6-yl)-6-((2-hydroxy-1,1-dimethylethyl)amino)-3-pyridinecarboxamide] | 71.9 nM |
| C[C@@H]1CN(c2cccc(NC(=O)c3ccc(NC(C)(C)CO)nc3N3CCC4(CC3)CC4)n2)CCO1 [Example 137, 2-(6-azaspiro[2.5]oct-6-yl)-6-((2-hydroxy-1,1-dimethylethyl)amino)-N-(6-((2R)-2-methyl-4-morpholinyl)-2-pyridinyl)-3-pyridinecarboxamide] | 66.9 nM |
| CC(C)(CO)Nc1ccc(C(=O)Nc2cccc(C3=CCOCC3)n2)c(N2CCC3(CC2)CC3)n1 [Example 138, 2-(6-azaspiro[2.5]oct-6-yl)-N-(6-(3,6-dihydro-2H-pyran-4-yl)-2-pyridinyl)-6-((1-hydroxy-2-methyl-2-propanyl)amino)-3-pyridinecarboxamide] | 82.9 nM |
| C[C@H]1CCN(c2cccc(NC(=O)c3ccc(NC(C)(C)CO)nc3N3CCC4(CC3)CC4)n2)C1 [Example 139, 2-(6-azaspiro[2.5]oct-6-yl)-6-((1-hydroxy-2-methyl-2-propanyl)amino)-N-(6-((3S)-3-methyl-1-pyrrolidinyl)-2-pyridinyl)-3-pyridinecarboxamide] | 89.3 nM |
| CC(O)(c1ccc(C(=O)Nc2cccc(N3CCOCC3)n2)c(N2CCC3(CC2)CC3)n1)C(F)(F)F (centres unmarked) [Example 140, N-(6-morpholinopyridin-2-yl)-2-(6-azaspiro[2.5]octan-6-yl)-6-(1,1,1-trifluoro-2-hydroxypropan-2-yl)nicotinamide] | 71.2 nM |

Source: patent US12441736B2, “KIF18A inhibitors” (AMGEN INC., priority 2018, dated 2025)
